In the oligonucleotide strings, read from the 5' end, every base follows the letter of its sugar. An asterisk marks phosphorothioate; unmarked linkages are phosphodiester. Other units and linkages are bracketed, terminal groups are in braces. A string of capitals states the bases alone. e = 2'-O-(2-methoxyethyl) (MOE); [5mC] = 5-methylcytosine; d = 2'-deoxy (DNA)
How the values were obtained:
[1] = tested on: human apolipoprotein B mRNA; experiment: Apolipoprotein B mRNA in primary human hepatocytes, real-time PCR; assay type: cell-based; conditions: for apolipoprotein B mRNA expression: 5, 10, 50 or 150 nM
Experimental: In accordance with the present invention, antisense oligonucleotides targeted to human apolipoprotein B were tested in dose response studies in primary human hepatocytes. Pre-plated primary human hepatocytes were purchased from Invitro Technologies (Baltimore, Md.). Cells were cultured in high-glucose DMEM (Invitrogen Corporation, Carlsbad, Calif.) supplemented with 10% fetal bovine serum (Invitrogen Corporation, Carlsbad, Calif.), 100 units/mL and 100 μg/mL streptomycin (Invitrogen Corporation, Carlsbad, Calif.).
Human primary hepatocytes were treated with ISIS 301012 (SEQ ID NO: 247) at 10, 50, 150 or 300 nM. Untreated cells and cells treated with the scrambled control oligonucleotide ISIS 113529 ([…], SEQ ID NO: 859) served as two groups of control cells. ISIS 113529 is a chimeric oligonucleotide (“gapmer”) 20 nucleotides in length, composed of a central “gap” region consisting of ten 2′-deoxynucleotides, which is flanked on both sides (5′ and 3′ directions) by five-nucleotide “wings”. The wings are composed of 2′-methoxyethyl (2′-MOE)nucleotides. The internucleoside (backbone) linkages are phosphorothioate (P═S) throughout the oligonucleotide. All cytidines are 5-methylcytidines.
(§1) Oligonucleotides were introduced into cells through LIPOFECTIN-mediated transfection as described by other examples herein. Cells were harvested both 24 and 48 hours after treatment with oligonucleotide, and both RNA and protein were isolated. Additionally, the culture media from treated cells was collected for ELISA analysis of apolipoprotein B protein secretion.
Apolipoprotein B mRNA expression was determined by real-time PCR of RNA samples as described by other examples herein. Each result represents 6 experiments.
(§2) An additional experiment was performed to test the effects of ISIS 271009 (SEQ ID NO: 319), ISIS 281625 (SEQ ID NO: 224) and ISIS 301027 (SEQ ID NO: 262) on human apolipoprotein B mRNA in human primary hepatocytes. Cells were cultured as described herein and treated with 5, 10, 50 or 150 nM of ISIS 271009, ISIS 281625 or ISIS 301027 for a period of 24 hours. The control oligonucleotides ISIS 13650 (SEQ ID NO: 806) and ISIS 113529 (SEQ ID NO: 859) were used at 50 or 150 nM. Human apolipoprotein B mRNA expression was evaluated by real-time PCR as described by other examples herein. Apolipoprotein B protein secreted into the cultured cell media was measured in the samples treated with 50 and 150 nM of oligonucleotide, using a target protein specific ELISA kit (ALerCHEK Inc., Portland, Me.).

apolipoprotein B protein = experiment: Apolipoprotein B protein secreted from primary human hepatocytes, ELISA; assay type: cell-based
Experimental: as §1
Apolipoprotein secreted from into the cultured cell media was measured in the samples treated with 50 and 150 nM of oligonucleotide, using a target protein specific ELISA kit (ALerCHEK Inc., Portland, Me.). Each result represents 3 experiments.
as §2

lipoprotein(a) = experiment: Lipoprotein(a) particle secretion from primary human hepatocytes, ELISA; assay type: cell-based; conditions: 24 hours
Experimental: Primary human hepatocytes (InVitro Technologies, Baltimore, Md.), cultured and transfected as described herein, were treated for 24 hours with 50 or 150 nM of ISIS 271009 (SEQ ID NO: 319), 281625 (SEQ ID NO: 224), 301012 (SEQ ID NO: 247) or 301027 (SEQ ID NO: 262). Cells were also treated with 150 nM of the control oligonucleotides ISIS 113529 (SEQ ID NO: 859) or ISIS 13650 (SEQ ID NO: 806). Untreated cells served as a control. Following 24 hours of oligonucleotide treatment, the amount of lipoprotein(a) in the culture medium collected from the treated cells was measured using a commercially available ELISA kit (ALerCHEK Inc., Portland, Me.). The results are the average of three experiments and are expressed as percent change in lipoprotein(a) secretion relative to untreated controls.

[2] = tested on: human apolipoprotein B mRNA; experiment: C57BL/6NTac-TgN(APOB100) transgenic mice, 8 weeks (Example 47): human apolipoprotein B mRNA in liver; assay type: in vivo, human transgene in mouse; conditions: C57BL/6NTac-TgN(APOB100) mice, 25 mg/kg i.p. twice a week, eight weeks; for mRNA % control, human mRNA: liver
Experimental: (§3) C57BL/6NTac-TgN(APOB100) mice were divided into two groups—one group receiving oligonucleotide treatment and control animals receiving saline treatment. After overnight fasting, mice were dosed intraperitoneally twice a week with saline or 25 mg/kg ISIS 281625 (SEQ ID No: 224) or ISIS 301012 (SEQ ID No: 247) for eight weeks. At study termination and forty eight hours after the final injections, animals were sacrificed and evaluated for target mRNA levels in liver, cholesterol and triglyceride levels, and liver enzyme levels. In addition, the endogenous mouse apolipoprotein B levels in liver were measured to evaluate any effects of these antisense oligonucletides targeted to the human apolipoprotein B.

[3] = tested on: endogenous mouse apolipoprotein B; experiment: C57BL/6NTac-TgN(APOB100) transgenic mice, 8 weeks (Example 47): endogenous mouse apolipoprotein B mRNA in liver; assay type: in vivo; conditions: C57BL/6NTac-TgN(APOB100) mice, 25 mg/kg i.p. twice a week, eight weeks; for mRNA % control, mouse mRNA: liver; for levels of the endogenous mouse apolipoprotein B in liver: specificity
Experimental: as §3

[4] = C57BL/6NTac-TgN(APOB100) transgenic mice (Example 47): liver enzyme, cholesterol, LDL-cholesterol and triglyceride levels; assay type: in vivo, mouse; conditions: C57BL/6NTac-TgN(APOB100) mice, 25 mg/kg i.p. twice a week, eight weeks; for AST and ALT levels: normal levels ~300 IU/L
Experimental: as §3

[5] = 5 nM, 24 hours, "+" = expression increased
[6] = 150 nM, 24 hours, "+" = increased

## 113529 (antisense e[5mC]*eT*e[5mC]*eT*eT*dA*d[5mC]*dT*dG*dT*dG*d[5mC]*dT*dG*dT*eG*eG*eA*e[5mC]*eA) [compound 113529]
[1]; 150 nM, 24 hours
  % Inhibition of apolipoprotein B mRNA: 16%
[1]; 150 nM, 48 hours
  % Inhibition of apolipoprotein B mRNA: 5%
[1]; 300 nM, 24 hours
  % Inhibition of apolipoprotein B mRNA: 10%
[1]; 300 nM, 48 hours
  % Inhibition of apolipoprotein B mRNA: 18%
Apolipoprotein B protein; 150 nM, 24 hours
  % Change in apolipoprotein B protein secretion: +6%
Apolipoprotein B protein; 150 nM, 48 hours
  % Change in apolipoprotein B protein secretion: +4%
lipoprotein(a); 150 nM
  % Change in lipoprotein(a) secretion: +14%

## 271009 (antisense eG*e[5mC]*e[5mC]*eT*e[5mC]*dA*dG*dT*d[5mC]*dT*dG*d[5mC]*dT*dT*d[5mC]*eG*e[5mC]*eG*e[5mC]*e[5mC]) [compound 271009]
lipoprotein(a); 50 nM
  % Change in lipoprotein(a) secretion: −25%
lipoprotein(a); 150 nM
  % Change in lipoprotein(a) secretion: −42%

## 281625 (antisense eA*eG*eG*eT*eT*dA*d[5mC]*d[5mC]*dA*dG*d[5mC]*d[5mC]*dA*d[5mC]*dA*eT*eG*e[5mC]*eA*eG) [compound 281625]
[2]
  mRNA % control, human mRNA: 45.2 % control
[3]
  mRNA % control, mouse mRNA: 111.0 % control
[4]
  Lipoproteins CHOL: 152.0 mg/dL
  Lipoproteins HDL: 84.6 mg/dL
  Lipoproteins LDL: 49.8 mg/dL
  Lipoproteins TRIG: 171.1 mg/dL
  Liver Enzymes ALT: 363.8 IU/L
  Liver Enzymes AST: 265.8 IU/L
lipoprotein(a); 50 nM
  % Change in lipoprotein(a) secretion: −26%
lipoprotein(a); 150 nM
  % Change in lipoprotein(a) secretion: −24%

## 301012 (eG*e[5mC]*e[5mC]*eT*e[5mC]*dA*dG*dT*d[5mC]*dT*dG*d[5mC]*dT*dT*d[5mC]*eG*e[5mC]*eA*e[5mC]*e[5mC]) [compound 301012]
[2]
  mRNA % control, human mRNA: 23.7 % control
[3]
  mRNA % control, mouse mRNA: 94.6 % control
[4]
  Lipoproteins CHOL: 145.1 mg/dL
  Lipoproteins HDL: 98.6 mg/dL
  Lipoproteins LDL: 36.6 mg/dL
  Lipoproteins TRIG: 157.8 mg/dL
  Liver Enzymes ALT: 137.4 IU/L
  Liver Enzymes AST: 208.4 IU/L
[1]; 10 nM, 24 hours
  % Inhibition of apolipoprotein B mRNA: 65%
[1]; 10 nM, 48 hours
  % Inhibition of apolipoprotein B mRNA: 33%
[1]; 50 nM, 24 hours
  % Inhibition of apolipoprotein B mRNA: 75%
[1]; 50 nM, 48 hours
  % Inhibition of apolipoprotein B mRNA: 48%
[1]; 150 nM, 24 hours
  % Inhibition of apolipoprotein B mRNA: 90%
[1]; 150 nM, 48 hours
  % Inhibition of apolipoprotein B mRNA: 78%
[1]; 300 nM, 24 hours
  % Inhibition of apolipoprotein B mRNA: 89%
[1]; 300 nM, 48 hours
  % Inhibition of apolipoprotein B mRNA: 72%
Apolipoprotein B protein; 150 nM, 24 hours
  % Change in apolipoprotein B protein secretion: −57%
Apolipoprotein B protein; 150 nM, 48 hours
  % Change in apolipoprotein B protein secretion: −75%
lipoprotein(a); 50 nM
  % Change in lipoprotein(a) secretion: −27%
lipoprotein(a); 150 nM
  % Change in lipoprotein(a) secretion: −37%

## 301027 (eG*e[5mC]*eT*e[5mC]*eA*d[5mC]*dT*dG*dT*dA*dT*dG*dG*dT*dT*eT*eT*eA*eT*e[5mC]; antisense) [compound 301027]
lipoprotein(a); 50 nM
  % Change in lipoprotein(a) secretion: −33%
lipoprotein(a); 150 nM
  % Change in lipoprotein(a) secretion: −44%

## ISIS 281625: SEQ ID NO: 224, 2′-MOE gapmer targeted to human apolipoprotein B (antisense eA*eG*eG*eT*eT*dA*d[5mC]*d[5mC]*dA*dG*d[5mC]*d[5mC]*dA*d[5mC]*dA*eT*eG*e[5mC]*eA*eG)
[2]
  mRNA levels of the human apolipoprotein B in liver: markedly decreased
[3]
  levels of the endogenous mouse apolipoprotein B in liver: unaffected
[4]
  Cholesterol levels relative to saline treatment: slightly increased
  triglyceride levels relative to saline treatment: slightly decreased
  AST and ALT levels: increased, yet did not exceed normal levels
[1]; [5]
  % Inhibition of apolipoprotein B mRNA expression: 8%
[1]; 10 nM, 24 hours (Table 37)
  % Inhibition of apolipoprotein B mRNA expression: 22%
[1]; 50 nM, 24 hours (Table 37)
  % Inhibition of apolipoprotein B mRNA expression: 49%
[1]; 150 nM, 24 hours (Table 37)
  % Inhibition of apolipoprotein B mRNA expression: 52%
[1]; 24 hours
  apolipoprotein B mRNA expression: inhibit apolipoprotein B mRNA expression in a dose-dependent manner
Apolipoprotein B protein; 50 nM, 24 hours
  % Inhibition of apolipoprotein B protein secretion: 18%
Apolipoprotein B protein; [6]
  % Inhibition of apolipoprotein B protein secretion: 18%

## ISIS 301012: SEQ ID NO: 247, antisense oligonucleotide targeted to human apolipoprotein B (antisense GCCTCAGTCTGCTTCGCACC; chemistry not given here)
[2]
  mRNA levels of the human apolipoprotein B in liver: markedly decreased
[3]
  levels of the endogenous mouse apolipoprotein B in liver: unaffected
[4]
  Cholesterol levels relative to saline treatment: slightly increased
  triglyceride levels relative to saline treatment: slightly decreased
  AST and ALT levels: increased, yet did not exceed normal levels
[1]; 10, 50, 150 or 300 nM, 24 and 48 hours
  apolipoprotein B expression (mRNA): inhibits apolipoprotein B expression in a dose-dependent manner

## ISIS 301027: SEQ ID NO: 262, 2′-MOE gapmer targeted to human apolipoprotein B (antisense eG*e[5mC]*eT*e[5mC]*eA*d[5mC]*dT*dG*dT*dA*dT*dG*dG*dT*dT*eT*eT*eA*eT*e[5mC])
[1]; [5]
  % Inhibition of apolipoprotein B mRNA expression: 11%
[1]; 10 nM, 24 hours (Table 37)
  % Inhibition of apolipoprotein B mRNA expression: 37%
[1]; 50 nM, 24 hours (Table 37)
  % Inhibition of apolipoprotein B mRNA expression: 50%
[1]; 150 nM, 24 hours (Table 37)
  % Inhibition of apolipoprotein B mRNA expression: 70%
[1]; 24 hours
  apolipoprotein B mRNA expression: inhibit apolipoprotein B mRNA expression in a dose-dependent manner
Apolipoprotein B protein; 50 nM, 24 hours
  % Inhibition of apolipoprotein B protein secretion: 21%
Apolipoprotein B protein; [6]
  % Inhibition of apolipoprotein B protein secretion: 32%
Apolipoprotein B protein; 50 and 150 nM
  secretion of apolipoprotein B protein from cells (ELISA): inhibit the secretion of apolipoprotein B protein from cells in a dose-dependent manner

Source: patent US7803930B2, “Antisense modulation of apolipoprotein B-expression” (Isis Pharmaceuticals, Inc., priority 2002, dated 2010)
